pIC50: −log10 of the molar value. Where two headings read alike, the source gives them in different places. Some results are limits rather than exact numbers.

One assay concerns the target hA2a (Homo sapiens (Human), UniProt P29274). Kind of assay: Radioligand binding to hA2a membrane with [3H]-CGS21680. The settings on record: read-out: Binding Affinity (IC50 nM) hA2a. The source says: (§1) The empty boxes in the tables below indicate data not collected yet.
Another assay addresses hA2b (Homo sapiens (Human), UniProt P29275). The experiment in a line: Radioligand binding to hA2b membrane with [3H]-DPCPX. The settings on record: read-out: Binding Affinity (IC50 nM) hA2b.
From the text: as §1

The target in assay [1] is hADORA1/CHO (hA1 expressing) cells (Homo sapiens (Human), UniProt P30542). The experiment in a line: cell-based. The settings on record: 10 μM adenosine.
Method: hADORA1/CHO (hA1 expressing) cells (Genscript) were plated at 1×10^4 cells/well into 384-well polystyrene plates one day before starting the experiment. On the day of experiment, the supernatant was discard and replaced with 40 μL of dye (FLIPR calcium 5 Assay Kit) per well and the plates were incubated for 60 mins at 37° C. plus 5% CO2. Then testing compounds were added at different concentrations for FLIPR™ inhibition assay. After a 400s incubation with compound, 10 μM adenosine was added into the cells, and the signal was captured by FLIPR.
The next assay concerns the target hA2a/CHO (Homo sapiens (Human), UniProt P29274). Kind of assay: cAMP inhibition assay in hA2a/CHO cells, 10 μM adenosine.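 Note: compounds added to cells 30 min ahead of adenosine, then a further 30 min at 37 °C with adenosine before cAMP detection.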 It counts as cell-based. The settings on record: read-out: cAMP & FLIPR IC50 (nM) hA2a.
The next assay has as its target hA2b/CHO (Homo sapiens (Human), UniProt P29275). Kind of assay: cAMP inhibition assay in hA2b/CHO cells, 10 μM adenosine.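 Note: cells exposed to compound 30 min at 37 °C, then stimulated with adenosine a further 30 min, cAMP read after 60 min at room temperature.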 In kind it is cell-based. The settings on record: read-out: cAMP & FLIPR IC50 (nM) hA2b.
In another assay the target is hA3/CHO (Homo sapiens (Human), UniProt P0DMS8). Kind of assay: cell-based. How it is done: hA2a/CHO, hA2b/CHO, hA3/CHO and mA2a/CHO (Genscript) were plated at 5×10^3 cells/well into 384-well polystyrene plates at the day of experiment. Compounds were pre-incubated with cells for 30 min at 37° C., 5% CO2. Then 10 μM adenosine was added to the cells and incubated for 30 min at 37° C., 5% CO2. Detection reagent (CISBIO) was added and the plates were incubated for 60 min at room temperature. The signal was captured by Envision.

In another assay the target is mA2a/CHO (Mus musculus (Mouse), UniProt Q60613). The experiment in a line: cAMP inhibition assay in mA2a/CHO cells, 10 μM adenosine.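 Note: compounds preincubated 30 min at 37 °C before the adenosine challenge, then 30 min further stimulation, readout after 60 min detection reagent incubation at room temperature in 384-well plates.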 In kind it is cell-based. The settings on record: read-out: cAMP & FLIPR IC50 (nM) mA2a.
A further assay concerns the target hA1 (Homo sapiens (Human), UniProt P30542). The settings on record: hA1 membrane, [3H]-DPCPX; read-out: Binding Affinity (IC50 nM) hA1.
From the text: as §1

The mark [2] stands for this setting: FLIPR inhibition, read-out: cAMP & FLIPR IC50 (nM) hA1.
[3] abbreviates: cAMP & FLIPR IC50 (nM) hA1, FLIPR inhibition.

Chain of hADORA1/CHO (hA1 expressing) cells (P30542 whole entry): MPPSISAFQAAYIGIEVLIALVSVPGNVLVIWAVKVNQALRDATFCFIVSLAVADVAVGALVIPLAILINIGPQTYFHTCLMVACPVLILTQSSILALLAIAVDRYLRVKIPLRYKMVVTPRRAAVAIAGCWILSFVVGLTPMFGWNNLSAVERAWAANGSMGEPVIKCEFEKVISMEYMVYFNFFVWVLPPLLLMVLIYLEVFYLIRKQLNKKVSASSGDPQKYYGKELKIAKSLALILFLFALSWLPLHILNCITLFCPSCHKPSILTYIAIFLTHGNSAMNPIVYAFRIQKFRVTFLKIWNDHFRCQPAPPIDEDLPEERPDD
Chain of hA1 (P30542 whole entry): as above
Chain of hA2b/CHO (P29275 whole entry): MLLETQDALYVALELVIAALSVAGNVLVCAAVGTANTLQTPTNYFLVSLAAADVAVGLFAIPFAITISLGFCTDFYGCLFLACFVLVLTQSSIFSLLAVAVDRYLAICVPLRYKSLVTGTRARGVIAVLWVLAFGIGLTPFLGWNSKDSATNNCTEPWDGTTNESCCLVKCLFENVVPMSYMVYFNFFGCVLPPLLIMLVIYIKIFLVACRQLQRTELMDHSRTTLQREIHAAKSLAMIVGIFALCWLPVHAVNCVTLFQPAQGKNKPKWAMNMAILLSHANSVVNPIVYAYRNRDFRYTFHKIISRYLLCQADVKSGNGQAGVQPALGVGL
Chain of mA2a/CHO (Q60613 whole entry): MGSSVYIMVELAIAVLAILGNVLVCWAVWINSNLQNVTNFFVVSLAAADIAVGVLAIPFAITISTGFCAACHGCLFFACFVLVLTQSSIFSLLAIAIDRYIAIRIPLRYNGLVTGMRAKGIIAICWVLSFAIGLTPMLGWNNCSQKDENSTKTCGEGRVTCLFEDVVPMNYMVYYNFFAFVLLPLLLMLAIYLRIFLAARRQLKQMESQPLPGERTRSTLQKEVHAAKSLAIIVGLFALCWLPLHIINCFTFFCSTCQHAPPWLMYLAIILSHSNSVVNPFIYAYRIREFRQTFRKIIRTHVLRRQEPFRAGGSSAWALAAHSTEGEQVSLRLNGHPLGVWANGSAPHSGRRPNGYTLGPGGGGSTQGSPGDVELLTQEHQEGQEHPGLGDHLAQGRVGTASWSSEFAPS
Chain of hA2a/CHO (P29274 whole entry): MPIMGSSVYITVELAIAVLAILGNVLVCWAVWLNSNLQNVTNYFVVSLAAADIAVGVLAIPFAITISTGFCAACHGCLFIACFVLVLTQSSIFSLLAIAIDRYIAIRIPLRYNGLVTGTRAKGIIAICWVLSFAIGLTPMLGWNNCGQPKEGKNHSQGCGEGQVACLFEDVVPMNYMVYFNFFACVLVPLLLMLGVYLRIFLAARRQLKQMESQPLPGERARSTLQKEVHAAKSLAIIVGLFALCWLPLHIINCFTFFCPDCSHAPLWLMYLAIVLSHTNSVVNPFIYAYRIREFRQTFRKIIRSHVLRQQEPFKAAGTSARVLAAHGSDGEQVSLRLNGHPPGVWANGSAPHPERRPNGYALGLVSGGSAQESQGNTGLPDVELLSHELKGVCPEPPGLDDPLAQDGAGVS
Chain of hA2a (P29274 whole entry): as above
Chain of hA2b (P29275 whole entry): as the sequence (P29275 whole entry) above
Chain of hA3/CHO (P0DMS8 whole entry): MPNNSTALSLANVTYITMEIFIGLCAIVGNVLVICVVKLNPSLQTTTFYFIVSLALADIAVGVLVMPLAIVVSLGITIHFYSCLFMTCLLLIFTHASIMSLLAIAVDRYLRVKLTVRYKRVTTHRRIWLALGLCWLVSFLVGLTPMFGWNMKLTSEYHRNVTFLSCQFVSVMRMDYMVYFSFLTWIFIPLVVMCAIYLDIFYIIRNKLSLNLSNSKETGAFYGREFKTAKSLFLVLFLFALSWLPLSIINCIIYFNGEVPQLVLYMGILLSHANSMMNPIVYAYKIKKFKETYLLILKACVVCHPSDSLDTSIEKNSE

As usually defined, the IC50 is the concentration that gives 50% inhibition. The pIC50 is the IC50 on a negative log10 scale, so that one unit is a factor of ten. Lower therefore signals a large IC50. Consider `CNc1cccc(CNC(=O)c2nc(-c3ccc(=O)n(C)c3)c(-c3ncco3)nc2N)n1` [Example 23, 3-amino-6-(1-methyl-6-oxo-1,6-dihydropyridin-3-yl)-N-[[6-(methylamino)pyridin-2-yl]methyl]-5-(1,3-oxazol-2-yl)pyrazine-2-carboxamide], for which the IC50 at hA2a was 3.5 nM; on hA2b it was 2.9 nM; in assay [1] (setting [2]) it was 281 nM; at hA2a/CHO it was 25 nM; at hA2b/CHO, 880 nM; on mA2a/CHO, 64 nM. For the same molecule, the negative-log IC50 (pIC50) on hA3/CHO was at most 5.00.
For `Cc1cnc2ccc(-c3nc(C(=O)NC[C@H]4CCCO4)c(N)nc3-c3ncco3)cn12` [Example 126, (R)-3-amino-6-(3-methylimidazo[1,2-a]pyridin-6-yl)-5-(oxazol-2-yl)-N-((tetrahydrofuran-2-yl)methyl)pyrazine-2-carboxamide], the concentration for half-maximal inhibition (IC50) stood at 78 nM at hA1; 1.4 nM at hA2a; 1230 nM in assay [1] (setting [3]); 1.6 nM at hA2a/CHO; 77 nM at hA2b/CHO; 7 nM at mA2a/CHO.
For `Cc1cnc2ccc(-c3nc(C(=O)NC[C@@H]4CCCO4)c(N)nc3-c3ncco3)cn12` [Example 127, (S)-3-amino-6-(3-methylimidazo[1,2-a]pyridin-6-yl)-5-(oxazol-2-yl)-N-((tetrahydrofuran-2-yl)methyl)pyrazine-2-carboxamide], the half-inhibitory concentration (IC50) at hA1 was found to be 68 nM; on hA2a, 3.1 nM; in assay [1] (setting [3]), 2420 nM; on hA2a/CHO, 1.7 nM; on hA2b/CHO, 99 nM; on mA2a/CHO, 14 nM.
For `Cn1cnc2ccc(-c3nc(C(=O)NCc4ncccc4F)c(N)nc3-c3ncco3)cc21` [Example 51, 3-amino-N-((3-fluoropyridin-2-yl)methyl)-6-(3-methyl-3H-benzo[d]imidazol-5-yl)-5-(oxazol-2-yl)pyrazine-2-carboxamide], the 50% inhibitory concentration (IC50) on hA1 came to 78 nM; on hA2a, 2.1 nM; in assay [1] (setting [2]), 2500 nM; at hA2a/CHO, 1.2 nM; at hA2b/CHO, 5.5 nM; at mA2a/CHO, 9.6 nM.
Turning to `Nc1nc(-c2ncco2)c(-c2ccc3nccn3c2)nc1C(=O)NCc1ncccc1F` [Example 43, 3-amino-N-((3-fluoropyridin-2-yl)methyl)-6-(imidazo[1,2-a]pyridin-6-yl)-5-(oxazol-2-yl)pyrazine-2-carboxamide], the half-inhibitory concentration (IC50) at hA1 was 245 nM; at hA2a it was 21 nM; in assay [1] (setting [3]), 10000 nM; at hA2a/CHO, 49 nM; on hA2b/CHO, 159 nM; at mA2a/CHO it was 240 nM.
With `Cc1cnc2ccc(-c3nc(C(=O)NC4CCC4)c(N)nc3-c3ncco3)cn12` [Example 218, 3-amino-N-cyclobutyl-6-(3-methylimidazo[1,2-a]pyridin-6-yl)-5-(oxazol-2-yl)pyrazine-2-carboxamide], the half-inhibitory concentration (IC50) is 475 nM on hA1; 9.1 nM at hA2a; over 10000 nM in assay [1] (setting [2]); 1.5 nM at hA2a/CHO; 359 nM at hA2b/CHO; 28 nM on mA2a/CHO.
For `Nc1cccc(CNC(=O)c2nc(-c3ccc4nccn4c3)c(-c3ncco3)nc2N)n1` [Example 48, 3-amino-N-[(6-aminopyridin-2-yl)methyl]-6-[imidazo[1,2-a]pyridin-6-yl]-5-(1,3-oxazol-2-yl) pyrazine-2-carboxamide], the 50% inhibitory concentration (IC50) is 67 nM on hA1; 3.1 nM at hA2a; 7160 nM in assay [1] (setting [2]); 19 nM at hA2a/CHO; 84 nM at hA2b/CHO; 256 nM on mA2a/CHO.
As for `Cc1cnc2ccc(-c3nc(C(=O)NC[C@@H]4CCOC4)c(N)nc3-c3ncco3)cn12` [Example 137, (S)-3-amino-6-(3-methylimidazo[1,2-a]pyridin-6-yl)-5-(oxazol-2-yl)-N-((tetrahydrofuran-3-yl)methyl)pyrazine-2-carboxamide], the IC50 at hA1 came to 195 nM; at hA2a, 3.9 nM; in assay [1] (setting [3]) it was 10000 nM; on hA2a/CHO it was 1.7 nM; on hA2b/CHO, 464 nM; on mA2a/CHO, 34 nM.
Turning to `COC[C@H](C)NC(=O)c1nc(-c2ccc3ncc(C)n3c2)c(-c2ncco2)nc1N` [Example 160, (S)-3-amino-N-(1-methoxypropan-2-yl)-6-(3-methylimidazo[1,2-a]pyridin-6-yl)-5-(oxazol-2-yl)pyrazine-2-carboxamide], the IC50 on hA1 worked out at 333 nM; on hA2a, 3.15 nM; in assay [1] (setting [2]), 4860 nM; at hA2a/CHO, 0.26 nM; on hA2b/CHO, 163 nM; on mA2a/CHO it was 0.89 nM.
`Cn1cc(-c2nc(C(=O)NCc3c(F)cccc3F)c(N)nc2-c2ncco2)ccc1=O` [Example 3, 3-amino-N-(2,6-difluorobenzyl)-6-(1-methyl-6-oxo-1,6-dihydropyridin-3-yl)-5-(oxazol-2-yl)pyrazine-2-carboxamide]: the IC50 on hA1 was found to be 16 nM; on hA2a, 1.9 nM; at hA2b, 1.4 nM; in assay [1] (setting [2]), 159 nM; at hA2a/CHO it was 4.5 nM; at hA2b/CHO it was 53 nM. Also, the concentration for half-maximal inhibition (IC50) on mA2a/CHO turned out to be 5.8 nM. On hA3/CHO, the pIC50 is at most 5.00.
On to `Nc1nc(-c2ncco2)c(-c2ccc3ncnn3c2)nc1C(=O)NCc1ncccc1F` [Example 100, 6-([1,2,4]triazolo[1,5-a]pyridin-6-yl)-3-amino-N-((3-fluoropyridin-2-yl)methyl)-5-(oxazol-2-yl)pyrazine-2-carboxamide], for which the 50% inhibitory concentration (IC50) on hA1 came to 685 nM; at hA2a, 8.4 nM; in assay [1] (setting [3]), 10000 nM; at hA2a/CHO, 76 nM; at hA2b/CHO it was 312 nM; on mA2a/CHO, 4530 nM.
